{
  "source": "paper PMC9935382",
  "about": "“Sorting nexin-dependent therapeutic targeting of oncogenic epidermal growth factor receptor” (Cancer Gene Therapy, 2022)",
  "molecules": {"B1": {"name": "BAR domain: human SNX1 BAR domain, residues 301–522, expressed in E. coli (protein)", "chain": "KMNESDIWFEEKLQEVECEEQRLRKLHAVVETLVNHRKELALNTAQFAKSLAMLGSSEDNTALSRALSQLAEVEEKIEQLHQEQANNDFFLLAELLSDYIRLLAIVRAAFDQRMKTWQRWQDAQATLQKKREAEARLLWANKPDKLQQAKDEILEWESRVTQYERDFERISTVVRKEVIRFEKEKSKDFKNHVIKYLETLLYSQQQLAKYWEAFLPEAKAIS", "modifications": "left off: MBP, N-terminal, cleaved", "notes": "human SNX1 BAR domain, residues 301–522, expressed in E. coli"}},
  "key": {"[1]": {"target": "EGFR kinase domain protein (EGFRkin), residues 672-998 with N-terminal His-tag (human)", "assay": "MST; His-EGFRkin (50 nM) labelled through the His-tag with RED-tris-NTA 2nd Generation dye; SNX peptides or SNX-BAR protein titrated, 16 1:1 serial dilutions from 20 uM in PBS-T; room temperature; Monolith NT.115 pico"}, "[2]": {"system": "MDA-MB-231 cells", "conditions": "previously characterized; no reference given; cited from earlier work"}, "[3]": {"system": "T47D cells", "conditions": "previously characterized; no reference given; cited from earlier work"}, "[4]": {"system": "CHO cells", "assay": "MTT cell viability, CHO", "type": "cell-based, Chinese hamster", "conditions": "CHO cells lack EGFR expression, 3 days", "experimental": "(§1) 2 × 10^3 cells were plated per well in a 96 well plate and left to adhere overnight. The following day, drug treatments were started and continued for 3 days. To measure the viability of the remaining cell population, 10% 3-(4,5-dimethylthiazol-2-yl)-2,5-diphenyltetrazolium (MTT) in media was added and incubated for 2 hours and conversion of MTT to formazan at 540 nm using a biotech Synergy LX plate reader.\n(§2) A–G Cells were plated in a 96-well plate at 2000 cells per well. […] Cell viability was then measured with an MTT assay, viability of treated cells were compared with the vehicle control. H MDA-MB-468 cells were plated and incubated+/− IPTG for 2 days prior to drug treatment to induce expression of an EGFR-targeted shRNA.\nSupplementary Figure 1. A. BT20 triple negative breast cancer cells were treated with SNX1.1, 1.2, or 1.3 for 3 days and their viability was measured via MTT analysis. B. CHO cells were treated with PTD4 or SNX1.3 for 3 days and their viability was measured via MTT analysis."}, "[5]": {"system": "MCF10A cells", "assay": "MTT cell viability, MCF10A", "type": "cell-based", "conditions": "immortalized breast epithelial line, 3 days", "experimental": "as §1, §2"}, "[6]": {"target": "T1, EGFR kinase domain (residues 672–998) (Homo sapiens, UniProt P00533)", "T1 construct": "baculovirus insect cell expression system (residues 672–998 with N-terminal His-tag followed by TEV cleavage site); made in house; host or cells: Sf9 insect cells (Bac-to-Bac baculovirus, pFastBacHT)", "assay": "Microscale thermophoresis (MST) binding to EGFRkin", "conditions": "MST, His-EGFRkin 50 nM (RED-tris-NTA dye) titrated with ligand, 16 1:1 serial dilutions from 20 μM, PBS-T, room temperature", "method": "Briefly pFastBacHT plasmid containing the cDNA of EGFR kinase domain with N-terminal His-tag was transformed into DH10Bac E. coli to generate bacmid DNA. P1 virus was generated by transfecting 2.0 mL of sf9 cells at 1.0 million cells/ml density with the purified bacmid DNA (200–3000 ng/μL). The P1 virus was harvested after 5–7 days following transfection. The P1 virus was diluted 100-fold into an sf9 cell culture at a density of 2.0 million cells/ml and cultured for 3 days. Supernatant containing the P2 virus was collected by centrifugation and diluted 40-fold into 1.0 L of sf9 cells at a density of 2.0 million cells/ml. After 2.5–3 days, cell pellets were harvested by centrifugation at 3500 x g at 4 °C for 20 min, and flash frozen in liquid nitrogen prior to storage at −80 °C.\nTo purify the EGFR kinase domain, Sf9 cell pellets (~10 g) was thawed on ice and homogenized with 2 passages on an EmulsiFlex-C5 (Avestin) in 50 mL of lysis buffer (50 mM Tris pH 7.5, 600 mM NaCl, 1 mM EDTA, 1 mM TCEP, protease inhibitors, DNAase, and 10% Glycerol). The lysate was centrifugated and supernatant was collected and loaded onto a 1.0 mL HisTrap FF column (GE) at a flow rate of 1.0 ml/min. Following loading, the column was washed with 20 column volumes of wash buffer (50 mM Tris pH 7.5, 600 mM NaCl, 20 mM Imidazole, 1 mM TCEP, and 10% Glycerol) and eluted with a linear gradient of elution buffers containing 20 and 300 mM imidazole. Fractions containing the EGFR kinase domain proteins were combined and concentrated to less than 1.0 mL. The concentrated proteins were loaded onto a Superdex 200 10/300 GL column (GE) equilibrated in buffer (20 mM Tris pH 7.5, 100 mM NaCl) for further purification. The purified proteins were concentrated, flash frozen in liquid nitrogen, and stored at −80 °C.\nMST experiments were carried out using a Monolith NT.115 pico instrument (NanoTemper Technologies, Munich Germany). […] Kd values were derived from the concentration-dependent changes in normalized fluorescence (Fnorm). Data were analyzed using NanoTemper MO. […]"}},
  "note": "“Also recorded” adds a separate entry of the source.",
  "data": [
    {"molecule": "human SNX-BAR protein (SNX1 BAR domain, residues 301-522) (from UniProt Q13596 301-522) (domain or fragment)", "values": [
      {"measurement": "Kd", "setting": "[1]", "value": 3000, "unit": "nM"}
    ]},
    {"molecule": "C#Cc1cccc(Nc2ncnc3cc(OCCOC)c(OCCOC)cc23)c1", "note": "[erlotinib]", "values": [
      {"measurement": "resistance to erlotinib", "setting": "[2]", "value": "resistant"},
      {"measurement": "resistance to erlotinib", "setting": "[3]", "value": "resistant"}
    ]},
    {"molecule": "CNC(=O)CN1CCC(Oc2cc3c(Nc4cccc(Cl)c4F)ncnc3cc2OC)CC1", "note": "[Sapitinib]", "values": [
      {"measurement": "impact on cell viability / growth", "setting": "[4]", "value": "more effective at inhibiting cell growth in immortalized cells than in cancer cells"},
      {"measurement": "impact on cell viability / growth", "setting": "[5]", "value": "more effective at inhibiting cell growth in immortalized cells than in cancer cells; also recorded: significantly reduces viability of normal cells"}
    ]},
    {"molecule": "B1", "values": [
      {"measurement": "Kd", "setting": "[6]", "value": 3000, "unit": "nM"},
      {"measurement": "Kd", "setting": "[6]; listed as SNX1 Bar", "value": "2900 ± 1700", "unit": "nM"}
    ]}
  ]
}
